Measured values: BindingDB's records for patent US11066406 (Janssen Pharmaceutica, 2021)

The molecules below were run against T1, Tyrosine-protein kinase JAK3 [512-1124] (Homo sapiens, UniProt P52333) (assay: Enzymatic Inhibition Assay).
T1 construct: 512-1124
T1 sequence (P52333 whole entry): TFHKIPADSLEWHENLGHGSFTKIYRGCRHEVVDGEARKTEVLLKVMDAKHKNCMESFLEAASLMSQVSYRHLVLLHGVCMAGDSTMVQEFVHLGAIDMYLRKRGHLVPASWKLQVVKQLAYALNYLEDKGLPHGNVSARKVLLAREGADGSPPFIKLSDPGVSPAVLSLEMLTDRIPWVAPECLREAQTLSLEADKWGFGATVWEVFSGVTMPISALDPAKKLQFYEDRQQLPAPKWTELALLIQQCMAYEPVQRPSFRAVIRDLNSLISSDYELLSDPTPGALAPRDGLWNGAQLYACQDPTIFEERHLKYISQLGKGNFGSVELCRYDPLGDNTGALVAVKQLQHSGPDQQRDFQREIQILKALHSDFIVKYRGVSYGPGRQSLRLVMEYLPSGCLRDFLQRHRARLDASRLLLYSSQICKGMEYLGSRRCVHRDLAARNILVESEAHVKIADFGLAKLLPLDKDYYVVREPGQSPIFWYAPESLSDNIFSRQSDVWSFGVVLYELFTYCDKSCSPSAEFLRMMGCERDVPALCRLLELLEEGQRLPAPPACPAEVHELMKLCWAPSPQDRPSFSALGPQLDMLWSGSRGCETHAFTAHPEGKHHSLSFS
Source text: LC/MS grade water and acetonitrile (ACN), were purchased from HoneyWell, Burdick & Jackson (Muskegon, Mich., USA).
N#CCCNC(=O)Cc1nc2cnc3[nH]ccc3c2n1C1CCC(CC#N)CC1 (stereo unspecified) [US11066406, Ex. 4] gave an IC50 of 96.2 nM.
With CC(C)(O)CNC(=O)Cc1nc2cnc3[nH]ccc3c2n1C1CCC(CC#N)CC1 (stereo unspecified) [US11066406, Ex. 1] the IC50 was 92.2 nM.
Molecule N#CCC1CCC(n2c(CC(=O)NC34CCC(CC#N)(CC3)C4)nc3cnc4[nH]ccc4c32)CC1 (stereo unspecified) [US11066406, Ex. 10] has an IC50 of 87.5 nM.
Cn1cc(NC(=O)Cc2nc3cnc4[nH]ccc4c3n2C2CCC(CC#N)CC2)cn1 (stereo unspecified) [US11066406, Ex. 9] showed an IC50 of 79.9 nM.
Molecule N#CCC1(n2c(CC(=O)NCC3CCOCC3)nc3cnc4[nH]ccc4c32)CCCCC1 [US11066406, Ex. 6] has an IC50 of 28.2 nM.
Molecule N#CCC1CCC(n2c(CC(=O)NCC3(O)CCC3)nc3cnc4[nH]ccc4c32)CC1 (stereo unspecified) [US11066406, Ex. 8] has an IC50 of 75.6 nM.
Work on N#CCC1CCC(n2c(CC(=O)NC3CCOCC3)nc3cnc4[nH]ccc4c32)CC1 (stereo unspecified) [US11066406, Ex. 5] yielded an IC50 of 23.1 nM.
N#CCC1CCC(n2c(CC(=O)NCC3(O)CC3)nc3cnc4[nH]ccc4c32)CC1 (stereo unspecified) [US11066406, Ex. 12] gave an IC50 of 101 nM.
CC(C)(C#N)CNC(=O)Cc1nc2cnc3[nH]ccc3c2n1C1CCC(CC#N)CC1 (stereo unspecified) [US11066406, Ex. 7] showed an IC50 of 98.4 nM.
Molecule N#CC[C@H]1CC[C@H](n2c(CC(=O)NCC3CC3)nc3cnc4[nH]ccc4c32)CC1 [US11066406, Ex. 3] has an IC50 of 82.8 nM.
For N#CCC1CCC(n2c(CC(=O)Nc3cc[nH]n3)nc3cnc4[nH]ccc4c32)CC1 (stereo unspecified) [US11066406, Ex. 11], the IC50 was 30.3 nM.
